Values quoted from earlier work as cited in patent US20090203732A1, “Thiazolones for Use as P13 Kinase Inhibitors” (priority 2006, published 2009).
Read-outs that look alike come from different tables or passages of the source.

What was measured:
CK2 protein kinase = CK2 protein kinase (Homo sapiens, UniProt P68400)
Sequence of CK2 protein kinase (P68400 whole entry): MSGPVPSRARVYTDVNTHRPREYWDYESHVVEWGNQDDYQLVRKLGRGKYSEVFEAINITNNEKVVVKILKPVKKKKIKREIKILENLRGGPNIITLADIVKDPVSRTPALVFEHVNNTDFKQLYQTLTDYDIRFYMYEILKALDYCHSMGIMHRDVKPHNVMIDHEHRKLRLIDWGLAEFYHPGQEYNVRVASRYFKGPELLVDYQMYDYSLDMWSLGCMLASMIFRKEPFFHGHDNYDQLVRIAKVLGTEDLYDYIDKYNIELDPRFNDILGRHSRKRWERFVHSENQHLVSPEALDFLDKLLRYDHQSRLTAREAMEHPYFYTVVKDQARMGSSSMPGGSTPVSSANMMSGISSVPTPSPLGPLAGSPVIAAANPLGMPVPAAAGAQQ

| Structure (SMILES) | IC50 (Class I PI3-kinases; each of the Class I PI3-kinases, Fruman et al. 1998, read-out: IC50 against each of these PI3-kinases) | IC50 (CK2 protein kinase) | IC50 (Class I PI3-kinases; each of the four members of Class I PI3-kinases, read-out: IC50 against each of the various Class I PI3-kinases) |
| --- | --- | --- | --- |
| O=c1cc(N2CCOCC2)oc2c(-c3ccccc3)cccc12 [LY294002] | 15 to 20 µM | 5 to 10 µM | – |
| COC[C@H]1OC(=O)c2coc3c2[C@@]1(C)C1=C(C3=O)[C@@H]2CCC(=O)[C@@]2(C)C[C@H]1OC(C)=O [wortmannin] | – | – | 0.001 to 0.01 µM |
